Measurements: BindingDB's records for doi:10.1016/j.bmcl.2019.126932 (Japan Tobacco, 2020)
pEC50: −log10 of the molar value.

Tests used:
[1] = Inhibition of NS5A in Hepatitis C virus subtype 1a replicon infected in human HuH7 cells assessed as reduction in viral replication
[2] = Inhibition of NS5A in Hepatitis C virus subtype 1b replicon infected in human HuH7 cells assessed as reduction in viral replication
[3] = Inhibition of NS5A in Hepatitis C virus subtype 2a replicon infected in human HuH7 cells assessed as reduction in viral replication

pEC50 [1]	pEC50 [2]	pEC50 [3]	SMILES
7.25	9.82	–	CCCC(=O)Nc1ccc(-c2ccc(-c3c[nH]c([C@@H]4CCCN4C(=O)[C@H](NC(=O)CCCNC(=O)OCc4ccccc4)c4ccccc4)n3)cc2)cc1
6.88	–	–	CCCC(=O)Nc1ccc(-c2ccc(-c3c[nH]c([C@@H]4CCCN4C(=O)[C@H](NC(=O)c4ccc(NC(=O)OCc5ccccc5)cc4)c4ccccc4)n3)cc2)cc1
6.61	–	–	CCCC(=O)Nc1ccc(-c2ccc(-c3c[nH]c([C@@H]4CCCN4C(=O)[C@H](NC(=O)N4CCC[C@H](NC(=O)OCc5ccccc5)C4)c4ccccc4)n3)cc2)cc1
7.00	10.64	–	CCCC(=O)Nc1ccc(-c2ccc(-c3c[nH]c([C@@H]4CCCN4C(=O)[C@H](NC(=O)N4CCC[C@@H](NC(=O)OCc5ccccc5)C4)c4ccccc4)n3)cc2)cc1
7.09	10.43	–	CCCC(=O)Nc1ccc(-c2ccc(-c3c[nH]c([C@@H]4CCCN4C(=O)[C@H](NC(=O)N4CC[C@H](NC(=O)OCc5ccccc5)C4)c4ccccc4)n3)cc2)cc1
8.96	11.32	–	CCCC(=O)Nc1ccc(-c2ccc(-c3c[nH]c([C@@H]4CCCN4C(=O)[C@H](NC(=O)N4CC[C@@H](NC(=O)OCc5ccccc5)C4)c4ccccc4)n3)cc2)cc1
6.45	10.37	–	CCCC(=O)Nc1ccc(-c2ccc(-c3c[nH]c([C@@H]4CCCN4C(=O)[C@H](NC(=O)N4CC[C@@H](NC(=O)OC)C4)c4ccccc4)n3)cc2)cc1
8.64	10.70	–	COC1CCN(C(=O)Nc2ccc(-c3ccc(-c4c[nH]c([C@@H]5CCCN5C(=O)[C@H](NC(=O)CCCNC(=O)OCc5ccccc5)c5ccccc5)n4)cc3)cc2)CC1
10.41	10.55	10.74	COC1CCN(C(=O)Nc2ccc(-c3ccc(-c4c[nH]c([C@@H]5CCCN5C(=O)[C@H](NC(=O)N5CC[C@@H](NC(=O)OCc6ccccc6)C5)c5ccccc5)n4)cc3)cc2)CC1

The remaining lines, values behind:

SMILES	pEC50 [1]	pEC50 [2]	pEC50 [3]
COC(=O)N[C@@H](C(=O)N1CCC[C@H]1c1ncc(-c2ccc(-c3ccc(-c4cnc([C@@H]5CCCN5C(=O)[C@H](NC(=O)OC)c5ccccc5)[nH]4)cc3)cc2)[nH]1)c1ccccc1	10.01	10.85	–
COC(=O)N[C@@H](C(=O)N1CCC[C@H]1c1ncc[nH]1)c1ccccc1	< 5.00	< 5.00	–
COC(=O)N[C@@H](C(=O)N1CCC[C@H]1c1nc(-c2ccc(-c3ccccc3)cc2)c[nH]1)c1ccccc1	5.55	7.24	–
CCCC(=O)Nc1ccc(-c2ccc(-c3c[nH]c([C@@H]4CCCN4C(=O)[C@H](NC(=O)OC)c4ccccc4)n3)cc2)cc1	5.55	9.47	–
CCCC(=O)Nc1ccc(-c2ccc(-c3c[nH]c([C@@H]4CCCN4C(=O)[C@H](NC(=O)c4ccccc4)c4ccccc4)n3)cc2)cc1	5.62	–	–
CCCC(=O)Nc1ccc(-c2ccc(-c3c[nH]c([C@@H]4CCCN4C(=O)[C@H](NC(=O)CCCc4ccccc4)c4ccccc4)n3)cc2)cc1	5.89	–	–
CCCC(=O)Nc1ccc(-c2ccc(-c3c[nH]c([C@@H]4CCCN4C(=O)[C@H](NC(=O)CCCCCCc4ccccc4)c4ccccc4)n3)cc2)cc1	6.19	–	–
CCCC(=O)Nc1ccc(-c2ccc(-c3c[nH]c([C@@H]4CCCN4C(=O)[C@H](NC(=O)c4ccccc4NC(=O)OCc4ccccc4)c4ccccc4)n3)cc2)cc1	6.21	–	–
CCCC(=O)Nc1ccc(-c2ccc(-c3c[nH]c([C@@H]4CCCN4C(=O)[C@H](NC(=O)c4cccc(NC(=O)OCc5ccccc5)c4)c4ccccc4)n3)cc2)cc1	7.36	10.12	–
CCCC(=O)Nc1ccc(-c2ccc(-c3c[nH]c([C@@H]4CCCN4C(=O)[C@H](NC(=O)N4CCCC4)c4ccccc4)n3)cc2)cc1	6.45	–	–
O=C(CCCNC(=O)OCc1ccccc1)N[C@@H](C(=O)N1CCC[C@H]1c1nc(-c2ccc(-c3ccc(NC(=O)c4ccccc4)cc3)cc2)c[nH]1)c1ccccc1	7.47	10.60	–
COCc1ccc(C(=O)Nc2ccc(-c3ccc(-c4c[nH]c([C@@H]5CCCN5C(=O)[C@H](NC(=O)CCCNC(=O)OCc5ccccc5)c5ccccc5)n4)cc3)cc2)cc1	8.46	11.38	–
COC1CCC(C(=O)Nc2ccc(-c3ccc(-c4c[nH]c([C@@H]5CCCN5C(=O)[C@H](NC(=O)CCCNC(=O)OCc5ccccc5)c5ccccc5)n4)cc3)cc2)CC1 (stereo partly drawn)	8.09	11.31	–
